Results on 13 compounds are retold here after patent US20240101552A1, “CARBONYL HETEROCYCLIC COMPOUND AND APPLICATION THEREOF” (SHANGHAI PHARMACEUTICALS HOLDING CO., LTD., priority 2020, published 2024).

Usually Kd stands for the equilibrium constant for the complex coming apart. High values mean a looser complex, low ones a tighter complex.

The subject of assay [1] is TNBS-induced colitis in mice. Description: Alleviating effect on TNBS-induced colitis in mice, study (II). The format is in vivo, Balb/c mice. As for the experimental part: Sixty female Balb/c mice, weighing about 18 g and 8-10 weeks old, were randomly divided into twelve groups, including eleven model groups and one Sham control group. The administration was started on Day 1 and ended on Day 7, with the compounds prepared once a day, as detailed in Table 1 for route and frequency of administration, and Table 2 for compound preparation and volume of administration.
Balb/c mice weighing about 18-20 g were anesthetized with 0.25 mL of 1.25% Avertin on Day 0. The mice in the model group were perfused rectally with 150 μL of 1% TNBS solution (ethanol with a final concentration of 50%). The mice in the Sham control group were perfused rectally with 50% ethanol on Day 0.
The mouse colon was photographed, measured for the length, and weighed after the contents were removed. The colon of each mouse was then cut longitudinally at ½, rolled in a uniform direction by Swiss-roll method and fixed in neutral paraformaldehyde.
The DAI scoring consisted of 3 parts, taking the method of mixed scoring of weight change, stool and blood in stool, and the specific DAI scoring criteria were shown in Table 3. Throughout the experiment, the DAI scoring of all mice was done by the same person to ensure the scale consistency of the scoring.
The experimental data were statistically analyzed by ANOVA method, and data of other groups and the Vehicle (PO, QD) group were analyzed by Dunnett's test to compare data of multiple groups, *p<0.05, **p<0.01, ***p<0.005, ****p<0.0001

The target in a further assay is LANCL2 (Homo sapiens (Human), UniProt Q9NS86). Nature of the assay: SPR (BIACORE S200) kinetic determination of LANCL2-small molecule interactions. The format is binding. To be noted: for Kd: immobilized LANCL2, 1:1 binding model, pH 6.5, 25° C.; for Rmax (RU): maximum binding force. The method, then:
1.1 Reagent Materials • Ligand: LANCL2 • Running buffer: 20 mM MES, 150 mM NaCl, 0.05% P20, pH 6.5, 1% DMSO
Injection conditions for small molecule compounds: a flow rate of 30 μL/min, a binding time of 60 s, a dissociation time of 300 s.
Running buffer: 20 mM MES, 150 mM NaCl, 0.05% P20, pH 6.5, 1% DMSO.
Sample chamber temperature: 25° C.; analysis temperature: 25° C.
Kinetic determination of LANCL2-small molecule interactions was performed. The kinetic parameters of small molecules BT-11 and L-1 to 60 (analytes) binding to LANCL2 (ligand) were determined using BIACORE S200. Data were generated in triplicate in a dose-dependent manner (5-8 titration points) and analyzed to determine binding models (Langmuir, conformational shifts, etc.), real-time association and dissociation constants, and equilibrium dissociation constants. SPR technology allows the validation of specific LANCL2-phytochemical interactions as well as an increased insight into the gold standard of binding mechanisms and rates. Experiments were performed on carboxymethyl polydextrose (CM5) sensor chips by amine-coupled covalent attachment of LANCL2. Data were analyzed with BIACORE S200T200 evaluation software (version 1), so as to determine affinity binding constants (KD) using a 1:1 binding model.
An optical technique for detecting molecular interactions, SPR, was used to measure the binding affinity between LANCL2 and a ligand thereof (compound to be tested). Purified recombinant LANCL2 protein was immobilized on a BIACORE sensor chip and small molecules were injected onto the protein surface using an equipment of microfluidic system. The change in total mass on the chip surface, corresponding to a small binding to the protein, was measured. […] The equilibrium dissociation constant (Kd) was often used to describe the affinity between a ligand and a protein, such as affinity degree of a ligand binding to a specific protein. Ligand-protein affinity was affected by non-covalent intermolecular interactions between two molecules, such as hydrogen bonding, electrostatic interactions, hydrophobic bonds and van der Waals forces. The steady-state affinity (Kd) for each interaction could be measured by plotting equilibrium binding levels against compound concentrations.
On the technique in general: Surface plasmon resonance follows binding to a sensor surface in real time, without labels.

Setting [2] is: vs Vehicle group, PO, 50 mpk, BID.
Where [3] appears, read: vs Vehicle group, L compounds PO 50 mpk BID, Mesalazine PO 100 mpk QD.

“Also recorded” adds a separate entry of the source.

LANCL2, sequence (Q9NS86 whole entry, species assumed): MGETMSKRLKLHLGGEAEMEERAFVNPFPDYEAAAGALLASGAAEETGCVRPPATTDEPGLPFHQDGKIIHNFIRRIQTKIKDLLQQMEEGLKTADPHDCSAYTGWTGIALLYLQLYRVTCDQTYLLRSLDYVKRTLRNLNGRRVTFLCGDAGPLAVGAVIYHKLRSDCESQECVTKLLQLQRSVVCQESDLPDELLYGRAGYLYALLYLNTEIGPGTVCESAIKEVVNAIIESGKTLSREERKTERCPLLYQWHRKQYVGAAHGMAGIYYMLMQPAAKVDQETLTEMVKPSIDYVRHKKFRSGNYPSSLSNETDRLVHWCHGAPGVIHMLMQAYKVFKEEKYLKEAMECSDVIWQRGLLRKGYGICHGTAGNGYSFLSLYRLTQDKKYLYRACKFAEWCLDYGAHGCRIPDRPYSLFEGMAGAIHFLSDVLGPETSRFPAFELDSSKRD

For `O=C(c1cccc(-c2nc3ccccc3[nH]2)n1)N1CCN(C(=O)c2cccc(-c3nc4ccccc4[nH]3)n2)CC1` [BT-11, reference compound], the “weight loss of the mice (FIG. 16A)” value in assay [1] (setting [2]) was “not significantly slowed down”. Besides, at LANCL2, the dissociation constant Kd was 4.46 µM and the “Rmax (RU)” value turned out to be 3.6 RU.

With `O=C(NC1C2CN(C(=O)c3cccc(-c4nc5ccccc5[nH]4)n3)CC21)c1cccc(-c2nc3ccccc3[nH]2)n1` [Embodiment L-11, N-(3-(6-(1H-benzo[d]imidazol-2-yl)picolinoyl)-3-azabicyclo[3.1.0]hexan-6-yl)-6-(1H-benzo[d]imidazol-2-yl)pyridinecarboxamide], in assay [1] (PO, 50 mpk, BID), the “alleviation of TNBS-induced colitis / inflammation (conclusion)” value was “could significantly alleviate the occurrence of inflammation in mice with TNBS-induced colitis; also recorded: could effectively alleviate TNBS-induced colitis in mice”; the “alleviation of symptoms of diarrhea and blood in stool” value was “could effectively alleviate the symptoms of diarrhea and blood in stool in TNBS model mice”; the “alleviation of weight loss caused by TNBS-induced colitis (body weight changes and DAI scores combined)” value is recorded as “could effectively alleviate the weight loss in mice caused by TNBS-induced colitis”. Besides, in assay [1] (setting [3]), the “colon weight (FIG. 18B)” value is on record as “less colon weight” and the “weight-to-length ratio of colon (FIG. 18C)” value is “significantly lower”. In assay [1] (setting [2]), the “DAI scores (FIG. 16B)” value is reported as “significantly lower”, the “blood in stool score (FIG. 17B)” value is recorded as “significantly slowed down”, the “colon length (FIG. 18A)” value is listed as “significantly more colon length” and the “diarrhea score (FIG. 17A)” value is “significantly slowed down”. Also, the “weight loss of the mice (FIG. 16A)” value in assay [1] (setting [2]) is given as “significantly slowed down”. Further, at LANCL2, the “binding activity compared with positive reference compound BT-11” value is on record as “better binding activities than the positive reference compound BT-11”, the Kd amounted to 3.67 µM and the “Rmax (RU)” value is reported as 4.2 RU.

Consider `O=C(c1cccc(-c2nc3ccccc3[nH]2)n1)N1CC2CC1CN2C(=O)c1ccnc(N2CCOCC2)n1` [Embodiment L-18, (5-(6-(1H-benzo[d]imidazol-2-yl)picolinoyl)-2,5-diazabicyclo[2.2.1]heptan-2-yl)(2-morpholinopyrimidin-4-yl)methanone], for which, on LANCL2, the Kd turned out to be 127 µM and the “Rmax (RU)” value worked out at 5.2 RU.

`Cc1cn(-c2cccc(C(=O)N3CC4C(C3)C4NC(=O)c3cccc(-c4nc5ccccc5[nH]4)n3)c2)cn1` [Embodiment L-93, 6-(1H-benzo[d]imidazol-2-yl)-N-(3-(3-(4-methyl-1H-imidazol-1-yl)benzoyl)-3-azabicyclo[3.1.0]hexane-6-yl)picolinamide]: on LANCL2, the equilibrium dissociation constant (Kd) was 5.84 µM and the “Rmax (RU)” value stood at 8 RU.

As to `Cc1ccc(C(=O)N2CCN(C(=O)c3cccc(-c4nc5ccccc5[nH]4)n3)CC2)cc1NC1=CC(=O)c2ccccc2C1=O` [Embodiment L-116, 2-((5-(4-(6-(1H-benzo[d]imidazol-2-yl)picolinoyl)piperazine-1-carbonyl)-2-methylphenyl)amino)naphthalene-1,4-dione], at LANCL2, the affinity, expressed as Kd, was 14.8 µM and the “Rmax (RU)” value came to 32.5 RU.

`CN1CCC2(CC1)CCN(c1ccc(NC(=O)C3CCN(C(=O)c4cccc(-c5nc6ccccc6[nH]5)n4)C3)cc1)CC2` [Embodiment L-35, 1-(6-(1H-benzo[d]imidazol-2-yl)picolinoyl)-N-(4-(9-methyl-3,9-diazaspiro[5.5]undecan-3-yl)phenyl)pyrrolidine-3-carboxamide]: on LANCL2, the affinity, expressed as Kd, was 66.1 µM and the “Rmax (RU)” value was 14.4 RU.

In the case of `O=C(c1cnc2ccccc2c1)N1CCN(C(=O)c2cccc(-c3nc4ccccc4[nH]3)n2)CC1` [Embodiment L-108, (4-(6-(1H-benzo[d]imidazol-2-yl)picolinoyl)piperazin-1-yl)(quinolin-3-yl)methanone], on LANCL2, the dissociation constant Kd was 48.4 µM and the “Rmax (RU)” value was determined as 13.7 RU.

Consider `O=C(NC1C2CN(C(=O)c3cccc(-c4nc5ccccc5[nH]4)n3)CC21)c1cccc(Nc2ccccn2)n1` [Embodiment L-52, N-(3-(6-(1H-benzo[d]imidazol-2-yl)picolinoyl)-3-azabicyclo[3.1.0]hexan-6-yl)-6-(pyridin-2-ylamino)picolinamide], for which, on LANCL2, the “binding activity compared with positive reference compound BT-11” value is “better binding activities than the positive reference compound BT-11”, binding was put at a Kd of 2.83 µM and the “Rmax (RU)” value was found to be 3.9 RU.

As to `O=C(Nc1cccc(-c2cn3ccccc3n2)c1)Nc1cccc(-c2cn3ccccc3n2)c1` [Embodiment L-119, 1,3-Bis(3-(imidazo[1,2-a]pyridin-2-yl)phenyl)urea], at LANCL2, the Kd was 6.78 µM and the “Rmax (RU)” value is given as 10.8 RU.

In the case of `O=C(c1cccc(-c2cn3ccccc3n2)c1)N1CC2CN(C(=O)c3cccc(-c4cn5ccccc5n4)c3)CC2C1` [Embodiment L-74, (tetrahydropyrrolo[3,4-c]pyrrole-2,5(1H,3H)-diyl)bis((3-(imidazo[1,2-a]pyridin-2-yl)phenyl)methanone)], at LANCL2, the affinity, expressed as Kd, was 25.8 µM and the “Rmax (RU)” value is listed as 0.102 RU.

Turning to `O=C(c1cccc(-c2nc3ccccc3[nH]2)n1)N1CCC2(CCN(C(=O)c3nccc(Nc4ccccc4)n3)C2)C1` [Embodiment L-66, (7-(6-(1H-benzo[d]imidazol-2-yl)picolinoyl)-2,7-diazaspiro[4.4]non-2-yl)(4-(phenylamino)pyrimidin-2-yl)methanone], on LANCL2, the Kd was determined as 31.8 µM and the “Rmax (RU)” value is given as 7.2 RU.

On to `Cc1[nH]c2ccccc2c1C(=O)N1CC2CN(C(=O)c3cccc(-c4nc5ccccc5[nH]4)n3)CC2C1` [Embodiment L-71, (5-(6-(1H-benzo[d]imidazol-2-yl)picolinoyl)hexahydropyrrolo[3,4-c]pyrrol-2(1H)-yl)(2-methyl-1H-indol-3-yl)methanone], for which, on LANCL2, the dissociation constant (Kd) came to 40.6 µM and the “Rmax (RU)” value was determined as 5.9 RU.

With `O=C(c1cccc(Nc2ccccc2)n1)N1CC2CN(C(=O)c3cccc(Nc4ccccc4)n3)CC2C1` [Embodiment L-100], on LANCL2, the Kd stood at 38.5 µM and the “Rmax (RU)” value is 7.8 RU.
